The record followed here is ChEMBL document CHEMBL2074498, “Induction of the multispecific organic anion transporter (cMoat/mrp2) gene and biliary glutathione secretion by the herbicide 2,4,5-trichlorophenoxyacetic acid in the mouse liver” (Biochem J, 1999).

For data set [1], the target named is T1, ATP-binding cassette sub-family C member 2 (Mus musculus, UniProt Q8VI47). Put plainly: TP_TRANSPORTER: Western in vivo, liver of CF I mouse. The data set is classed as functional, organism-based.
Data set [2] concerns the target T1, ATP-binding cassette sub-family C member 2. Put plainly: TP_TRANSPORTER: Northern blot in vivo, liver of CF I mouse. The data set is classed as functional, organism-based.

T1 sequence (Q8VI47 whole entry): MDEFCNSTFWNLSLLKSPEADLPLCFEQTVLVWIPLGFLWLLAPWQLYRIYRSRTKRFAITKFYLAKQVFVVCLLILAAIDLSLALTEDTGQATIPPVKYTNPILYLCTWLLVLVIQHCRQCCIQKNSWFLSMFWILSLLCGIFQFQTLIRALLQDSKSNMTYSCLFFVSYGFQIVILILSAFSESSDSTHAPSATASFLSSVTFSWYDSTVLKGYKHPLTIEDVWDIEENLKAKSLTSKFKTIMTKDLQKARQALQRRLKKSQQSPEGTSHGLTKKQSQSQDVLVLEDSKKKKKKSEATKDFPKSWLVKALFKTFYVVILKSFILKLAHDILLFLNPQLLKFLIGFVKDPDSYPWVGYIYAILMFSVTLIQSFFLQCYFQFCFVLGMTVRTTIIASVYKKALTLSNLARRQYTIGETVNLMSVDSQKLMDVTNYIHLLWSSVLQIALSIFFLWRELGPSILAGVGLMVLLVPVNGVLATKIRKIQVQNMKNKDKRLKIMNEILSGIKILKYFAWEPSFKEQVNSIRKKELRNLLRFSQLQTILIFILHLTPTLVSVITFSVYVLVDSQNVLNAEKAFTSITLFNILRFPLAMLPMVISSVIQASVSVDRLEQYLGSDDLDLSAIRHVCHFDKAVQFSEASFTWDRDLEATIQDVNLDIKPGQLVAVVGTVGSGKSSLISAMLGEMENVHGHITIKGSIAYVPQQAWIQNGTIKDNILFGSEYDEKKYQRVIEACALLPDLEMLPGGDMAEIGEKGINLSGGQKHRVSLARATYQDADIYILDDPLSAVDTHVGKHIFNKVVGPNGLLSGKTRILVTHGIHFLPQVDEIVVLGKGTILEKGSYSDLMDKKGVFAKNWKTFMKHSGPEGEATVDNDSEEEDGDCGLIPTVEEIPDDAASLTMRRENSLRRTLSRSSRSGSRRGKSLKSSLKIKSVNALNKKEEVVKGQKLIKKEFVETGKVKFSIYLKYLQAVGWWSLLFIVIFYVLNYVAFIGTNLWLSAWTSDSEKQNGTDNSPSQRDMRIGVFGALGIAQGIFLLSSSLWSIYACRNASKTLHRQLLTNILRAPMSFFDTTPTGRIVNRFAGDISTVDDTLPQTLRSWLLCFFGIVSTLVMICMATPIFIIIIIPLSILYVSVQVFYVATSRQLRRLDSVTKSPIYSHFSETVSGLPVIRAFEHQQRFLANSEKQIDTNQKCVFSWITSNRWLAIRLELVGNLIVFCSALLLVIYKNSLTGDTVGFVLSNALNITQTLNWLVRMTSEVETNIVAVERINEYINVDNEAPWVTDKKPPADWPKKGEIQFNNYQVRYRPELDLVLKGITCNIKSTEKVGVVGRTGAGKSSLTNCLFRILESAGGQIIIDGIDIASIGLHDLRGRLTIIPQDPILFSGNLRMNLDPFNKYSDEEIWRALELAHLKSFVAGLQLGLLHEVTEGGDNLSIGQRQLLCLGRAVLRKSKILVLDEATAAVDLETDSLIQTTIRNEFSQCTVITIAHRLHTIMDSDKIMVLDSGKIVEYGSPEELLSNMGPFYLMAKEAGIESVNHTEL

With `O=C(O)COc1cc(Cl)c(Cl)cc1Cl` [2,4,5-TRICHLOROPHENOXYACETIC ACID], the Activity entry in data set [1] and in data set [2] was “inducer [+]” in each case.
